The source of these data is US11236106B2, “Cycloalkane-1,3-diamine derivative” (Daiichi Sankyo Company, Limited, priority 2018, dated 2022).

Counter-ions that a name gives are not always drawn.

The target of one experiment is T1, menin and MLL (menin, Flag tagged; biotinylated MLL1 peptide 1-46aa) (Homo sapiens, UniProt O00255).
T1 sequence (O00255 1-610): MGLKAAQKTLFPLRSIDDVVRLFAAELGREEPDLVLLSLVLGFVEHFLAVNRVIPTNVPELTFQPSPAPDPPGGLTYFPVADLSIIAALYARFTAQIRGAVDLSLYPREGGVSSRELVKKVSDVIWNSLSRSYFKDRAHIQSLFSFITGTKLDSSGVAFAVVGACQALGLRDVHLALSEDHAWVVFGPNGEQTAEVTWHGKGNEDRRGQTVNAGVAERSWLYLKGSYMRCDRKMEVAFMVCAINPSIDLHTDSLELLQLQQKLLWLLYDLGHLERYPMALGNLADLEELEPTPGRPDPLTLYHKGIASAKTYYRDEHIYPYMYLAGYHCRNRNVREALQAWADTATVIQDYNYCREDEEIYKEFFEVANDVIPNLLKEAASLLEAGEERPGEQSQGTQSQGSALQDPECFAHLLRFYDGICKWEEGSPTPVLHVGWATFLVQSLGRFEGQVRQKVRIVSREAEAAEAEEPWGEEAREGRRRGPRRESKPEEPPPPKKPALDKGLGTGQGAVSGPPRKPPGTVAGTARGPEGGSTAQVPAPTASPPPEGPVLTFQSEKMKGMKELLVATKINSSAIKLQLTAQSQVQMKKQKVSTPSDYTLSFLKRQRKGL
Description: biochemical.
Settings: not given
Turning to `COc1nc(N(C)[C@H]2C[C@@H](NCc3ccc(-c4cc(OC)c(OC)cn4)cc3)C[C@H]2O)c2cc(CC(F)(F)F)sc2n1` [Example 116, (1R,2S,4R)-4-({[4-(4,5-dimethoxypyridin-2-yl)phenyl]methyl}amino)-2-{[2-methoxy-6-(2,2,2-trifluoroethyl)thieno[2,3-d]pyrimidin-4yl](methyl)amino}cyclopentan-1-ol hydrochloride], half-maximal inhibition (IC50) was put at 1 nM.
As for `COc1nc(N(C)[C@H]2C[C@@H](NCc3ccc(-c4cc(OC)c(Oc5ccccc5)nn4)cc3)C[C@H]2O)c2cc(CC(F)(F)F)sc2n1` [Example 114, (1R,2S,4R)-4-({[4-(5-methoxy-6-phenoxypyridazin-3-yl)phenyl]methyl}amino)-2-{[2-methoxy-6-(2,2,2-trifluoroethy)thieno[2,3-d]pyrimidin-4-yl](methyl)amino}cyclopentan-1-ol hydrochloride], the IC50 (usually the concentration that gives 50% inhibition) is 1.5 nM.

The experiment is the same for the next values; noted with them: IC50, binding inhibitory activity between menin and MLL, AlphaLISA; 1 nM menin, 10 nM biotinylated MLL1 peptide.
In turn, `COc1nc(N(C)[C@H]2C[C@@H](NCc3ccc(-c4nn(C(F)F)c(=O)cc4OC)cc3)C[C@H]2O)c2cc(CC(F)(F)F)sc2n1` [Example 111, 2-(difluoromethyl)-6-[4-({[(1R,3R,4S)-3-hydroxy-4-{[2-methoxy-6-(2,2,2-trifluoroethyl)thieno[2,3-d]pyrimidin-4-yl](methyl)amino}cyclopentyl]amino}methyl)phenyl]-5-methoxypyridazin-3(2H)-one hydrochloride] showed an IC50 of 42.3 nM.
Take `CNC(=O)c1cccc(-c2ccc(CN[C@H]3CC[C@@H](N(C)c4ncnc5sc(CC(F)(F)F)cc45)C3)cc2)c1` [Example 66, N-methyl-4′-({[|(1S,3R)-3-{methyl[6-(2,2,2-trifluoroethyl)thieno[2,3-d]pyrimidin-4-yl]amino}cyclopentyl]amino}methyl)[1,1′-biphenyl]-3-carboxamide hydrochloride]: the 50% inhibitory concentration (IC50) came to 6.7 nM.
`COc1nc(N(C)[C@H]2C[C@@H](NCc3ccc(-c4nnc(OC(F)F)cc4OC)cc3)C[C@H]2O)c2cc(CC(F)(F)F)sc2n1` [Example 110, (1R,2S,4R)-4-[({4-[6-(difluoromethoxy)-4-methoxypyridazin-3-yl]phenyl}methyl)amino]-2-{[2-methoxy-6-(2,2,2-trifluoroethyl)thieno[2,3-d]pyrimidin-4-yl](methyl)amino}cyclopentan-1-ol hydrochloride] yielded an IC50 of 2.1 nM.
Consider `COc1cc(-c2ccc(CN[C@H]3C[C@@H](O)[C@@H](N(C)c4ncnc5sc(CC(F)(F)F)cc45)C3)cc2)cnc1Cl` [Example 65, (1R,2S,4R)-4({[4-(6-chloro-5-methoxypyridin-3-yl)phenyl]methyl}amino)-2{methyl[6-(2,2,2-trifluoroethyl)thieno[2,3-d]pyrimidin-4-yl]amino}cyclopentan-1-ol hydrochloride], for which the IC50 stood at 2.5 nM.
For `COc1cc(-c2ccc(CN[C@H]3C[C@@H](OC)[C@@H](N(C)c4ncnc5sc(CC(F)(F)F)cc45)C3)cc2)nnc1OC` [Example 127, (1R,3S,4R)—N^1-{[4-(5,6-dimethoxypyridazin-3-yl)phenyl]methyl}-4-methoxy-N^3-methyl-N^3-[6-(2,2,2-trifluoroethyl)thieno[2,3-d]pyrimidin-4-yl]cyclopentane-1,3-diamine Hydrochloride], the IC50 amounted to 1.6 nM.
As for `COc1cc(-c2ccc(CN[C@H]3C[C@@H](O)[C@@H](N(C)c4ncnc5sc(CC(F)(F)F)cc45)C3)cc2F)cnc1F` [Example 74, (1R,2S,4R)-4-({[3-fluoro-4-(6-fluoro-5-methoxypyridin-3-yl)phenyl]methyl}amino)-2-{methyl[6-(2,2,2-trifluoroethyl)thieno[2,3-d]pyrimidin-4-yl]amino}cyclopentan-1-ol hydrochloride], the IC50 is 6.5 nM.
In the case of `CNc1nc(N(C)[C@H]2C[C@@H](NCc3ccc(-c4cncc5c4ccn5S(C)(=O)=O)cc3)C[C@H]2O)c2cc(CC(F)(F)F)sc2n1` [Example 64, (1R,2S,4R)-4[({4-[1-(methanesulfonyl)-1H-pyrrolo[2,3-c]pyridin-4yl]phenyl}methyl)amino]-2-{methyl[2-(methylamino)-6-(2,2,2trifluoroethyl)thieno[2,3-d]pyrimidin-4-yl]amino}cyclopentan-1-ol hydrochloride], the IC50 turned out to be 2.2 nM.
Molecule `COc1nc(N(C)[C@H]2C[C@@H](NCc3ccc(-c4cnc(F)c(OC)c4)cc3)C[C@H]2O)c2cc(CC(F)(F)F)sc2n1` [Example 91, (1R,2S,4R)-4-({[4-(6-fluoro-5-methoxypyridin-3yl)phenyl]methyl}amino)-2{[2-methoxy6-(2,2,2-trifluoroethyl)thieno[2,3-d]pyrimidin-4-yl](methyl)amino}cyclopentan-1-ol hydrochloride] gave an IC50 of 1.3 nM.

The same experiment, now with this note: cell free IC50 (nM), 1 nM menin, 10 nM biotinylated MLL1 peptide, AlphaLISA.
`CN(c1ncnc2sc(CC(F)(F)F)cc12)[C@@H]1CC[C@H](NCc2ccc(OCCO)c(F)c2)C1` [Example 31, 2-[2-fluoro-4-({[(1S,3R)-3-{methyl[6-(2,2,2-trifluoroethyl)thieno[2,3-d]pyrimidin-4-yl]amino}cyclopentyl]amino}methyl)phenoxy]ethan-1-ol hydrochloride] had an IC50 of 46.4 nM.
The same measure, in the same setting: as for `CN(c1ncnc2sc(CC(F)(F)F)cc12)[C@@H]1CC[C@H](NCc2ccc(OCCN3CCOCC3)cc2)C1` [Example 30, (1R,3S)-N^1-methyl-N^3-({4-[2-(morpholin-4-yl)ethoxy]phenyl}methyl)-N^1-[6-(2,2,2-trifluoroethyl)thieno[2,3-d]pyrimidin-4-yl]cyclopentane-1,3-diamine hydrochloride], the figure is 44.6 nM; as for `CN(c1ncnc2sc(CC(F)(F)F)cc12)[C@@H]1CC[C@H](NCC2CCCCC2)C1` [Example 28, (1R,3S)-N^3-(cyclohexylmethyl)-N^1-methyl-N^1-[6-(2,2,2-trifluoroethyl)thieno[2,3-d]pyrimidin-4-yl]cyclopentane-1,3-diamine hydrochloride], 1160 nM; as for `O=C1CCCN1Cc1ccc(CN[C@H]2CCC[C@@H](Nc3ncnc4sc(CC(F)(F)F)cc34)C2)cc1` [Example 38, 1-{[4-({[(1S,3R)-3-{[6-(2,2,2-trifluoroethyl)thieno[2,3-d]pyrimidin-4-yl[amino}cyclohexy]amino}methyl)phenyl]methyl}pyrrolidin-2-one hydrochloride], 1850 nM.
In the case of `CNc1nc(N(C)[C@H]2C[C@@H](NCc3ccc(Nc4cccnc4)cc3)C[C@@H]2O)c2cc(CC(F)(F)F)sc2n1` [Example 54, (1S,2S,4R)-2-{methyl[2-(methylamino)-6-(2,2,2-trifluoroethyl)thieno[2,3-d]pyrimidin-4-yl]amino}-4-[({4-[(pyridin-3-yl)amino]phenyl}methyl)amino]cyclopentan-1-ol hydrochloride], it took 1 nM to reach half-maximal inhibition (IC50).
In turn, `CCN(c1ncnc2sc(CC(F)(F)F)cc12)[C@@H]1CC[C@H](NCc2ccc(-c3cccnc3)cc2)C1` [Example 43, (1R,3S)-N^1-ethyl-N^3-{[4-(pyridin-3-yl)phenyl]methyl}-N^1-[6-(2,2,2 trifluoroethyl)thieno[2,3-d]pyrimidin-4-yl]cyclopentane-1,3-diamine hydrochloride] registered a 50% inhibitory concentration (IC50) of 76.2 nM.
In turn, `CC(=O)Nc1ccc(CN[C@H]2CCC[C@@H](Nc3ncnc4sc(CC(F)(F)F)cc34)C2)cc1` [Example 29, N-[4-({[(1S,3R)-3-{[6-(2,2,2-trifluoroethyl)thieno[2,3-d]pyrimidin-4-yl]amino}cyclohexyl]amino}methyl)phenyl]acetamide hydrochloride] registered an IC50 of 464 nM.
Still for that read-out and setting: next, `FC(F)(F)Cc1cc2c(N[C@@H]3CCC[C@H](NCc4ccc(Oc5ccccc5)cc4)C3)ncnc2s1` [Example 41, (1S,3R)-N^1-[(4-phenoxyphenyl)methyl]-N^3-[6-(2,2,2-trifluoroethyl)thieno[2,3-d]pyrimidin-4-yl]cyclohexane-1,3-diamine hydrochloride]: 472 nM; `COc1cncc(-c2ccc(CN[C@H]3CC[C@@H](N(C)c4ncnc5sc(CC6CC6)cc45)C3)cc2)c1` [Example 9, (1R,3S)—N^1-[6-(cyclopropylmethyl)thieno[2,3-d]pyrimidin-4-yl]-N^3-{[4-(5-methoxypyridin-3-yl)phenyl]methyl}-N^1-methylcyclopentane-1,3-diamine Hydrochloride]: 22.2 nM; `COc1cncc(-c2ccc(CN(C)[C@@H]3C[C@H](O)C[C@H](Nc4ncnc5sc(CC(F)(F)F)cc45)C3)cc2)c1` [Example 16, (1R,3S,5R)-3-[{[4-(5-methoxypyridin-3-yl)phenyl]methyl}(methyl)amino]-5-{[6-(2,2,2-trifluoroethyl)thieno[2,3-d]pyrimidin-4-yl]amino}cyclohexan-1-ol]: 1870 nM.
For the molecule `CN(c1ncnc2sc(CC(F)(F)F)cc12)[C@@H]1CC[C@H](NCc2ccc(S(=O)(=O)c3ccccc3)cc2)C1` [Example 53, (1R,3S)N^3-{[4-(benzenesulfonyl)phenyl]methyl}N^1-methyl-N^1-[6-(2,2,2-trifluoroethyl)thieno[2,3-d]pyrimidin-4-yl]cyclopentane-1,3-diamine hydrochloride], the IC50 stood at 17.7 nM.
